Test results published in patent publication US12473304B2, “Heterocyclic PAD4 inhibitors” (BRISTOL-MYERS SQUIBB COMPANY, priority 2020, dated 2025).

Molecular target: human PAD4 (hPAD4) (Homo sapiens (Human), UniProt Q9UM07)
Assay: RFMS Human PAD4 Functional Assay 1
Format: biochemical
Settings: RFMS assay 1; 5 nM hPAD4, 250 μM BAEE substrate, 50 μM calcium, 37° C.
How it was run: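 Recombinant hPAD4 (5 nM) was preincubated with compound (top 50 μM, 0.5% DMSO) for 30 min at 37 °C, then reacted with 250 μM BAEE for 90 min at 37 °C in pH 7.5 HEPES buffer with 50 μM calcium and 5 μM TPEN. Product was derivatized with phenyl glyoxal and quantified by RapidFire MS.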

human PAD4 (hPAD4), sequence (Q9UM07 whole entry): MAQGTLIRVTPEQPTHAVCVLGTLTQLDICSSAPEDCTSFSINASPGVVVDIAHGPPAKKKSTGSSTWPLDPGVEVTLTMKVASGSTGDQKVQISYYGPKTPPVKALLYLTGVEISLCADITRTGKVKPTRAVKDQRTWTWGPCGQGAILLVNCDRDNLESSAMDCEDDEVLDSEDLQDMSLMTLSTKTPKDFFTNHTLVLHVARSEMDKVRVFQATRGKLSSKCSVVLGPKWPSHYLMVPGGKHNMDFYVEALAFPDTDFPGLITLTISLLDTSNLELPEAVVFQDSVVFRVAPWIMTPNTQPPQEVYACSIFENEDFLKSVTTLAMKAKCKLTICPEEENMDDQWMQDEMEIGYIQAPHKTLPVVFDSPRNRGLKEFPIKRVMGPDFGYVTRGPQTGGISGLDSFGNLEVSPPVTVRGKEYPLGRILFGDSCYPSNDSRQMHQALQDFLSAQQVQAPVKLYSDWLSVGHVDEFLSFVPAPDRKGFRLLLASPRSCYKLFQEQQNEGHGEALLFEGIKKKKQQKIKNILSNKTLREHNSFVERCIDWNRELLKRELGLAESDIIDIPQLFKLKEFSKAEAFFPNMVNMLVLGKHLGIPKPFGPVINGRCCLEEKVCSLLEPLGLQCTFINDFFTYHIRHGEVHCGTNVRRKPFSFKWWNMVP

Compared with `COc1cc(C(=O)N2CC3CCC2[C@@H]3N)cc2oc(-c3cc4ccc(C5CC5)cc4n3CC3CC3)c(C)c12` (stereo partly drawn) [Example 156, ((7R)-7-Amino-2-azabicyclo[2.2.1]heptan-2-yl)(2-(6-cyclopropyl-1-(cyclopropylmethyl)-1H-indol-2-yl)-4-methoxy-3-methylbenzofuran-6-yl)methanone], `COc1cc(C(=O)N2CC3CCC2[C@@H]3N)cc2oc(-c3cc4ccc(N5CCC(N)CC5)cc4n3CC3CC3)c(C)c12` (stereo partly drawn) [Example 160, ((7R)-7-Amino-2-azabicyclo[2.2.1]heptan-2-yl)(2-(6-(4-aminopiperidin-1-yl)-1-(cyclopropylmethyl)-1H-indol-2-yl)-4-methoxy-3-methylbenzofuran-6-yl)methanone] is 3.6-fold lower in IC50: 173 nM for the first, 48 nM for the second. The second is the more potent here.

Going from `COc1cc(C(=O)N2CC3CCC2[C@@H]3N)cc2oc(-c3cc4ccc(-c5ccn6c(C)nnc6c5)cc4n3CC3CC3)c(C)c12` (stereo partly drawn) [Example 157, ((7R)-7-Amino-2-azabicyclo[2.2.1]heptan-2-yl)(2-(1-(cyclopropylmethyl)-6-(3-methyl-[1,2,4]triazolo[4,3-a]pyridin-7-yl)-1H-indol-2-yl)-4-methoxy-3-methylbenzofuran-6-yl)methanone] to `Cc1c(-c2cc3ccc(-c4ccn5c(C)nnc5c4)cc3n2CC2CC2)oc2cc(C(=O)N3CC4CCC3[C@@H]4N)ccc12` (stereo partly drawn) [Example 179, ((7R)-7-Amino-2-azabicyclo[2.2.1]heptan-2-yl)(2-(1-(cyclopropylmethyl)-6-(3-methyl-[1,2,4]triazolo[4,3-a]pyridin-7-yl)-1H-indol-2-yl)-3-methylbenzofuran-6-yl)methanone], the IC50 falls from 95 nM to 35 nM (2.7-fold).

Compared with `COc1cc(C(=O)N2CC3CCC2[C@@H]3N)cc2oc(-c3cc4ccc(N5CCC(OC)CC5)cc4n3CC3CC3)c(C)c12` (stereo partly drawn) [Example 159, ((7R)-7-Amino-2-azabicyclo[2.2.1]heptan-2-yl)(2-(1-(cyclopropylmethyl)-6-(4-methoxypiperidin-1-yl)-1H-indol-2-yl)-4-methoxy-3-methylbenzofuran-6-yl)methanone], `COC1CN(c2ccc3cc(-c4oc5cc(C(=O)N6CC7CCC6[C@@H]7N)ccc5c4C)n(CC4CC4)c3n2)C1` (stereo partly drawn) [Example 173, ((7R)-7-Amino-2-azabicyclo[2.2.1]heptan-2-yl)(2-(1-(cyclopropylmethyl)-6-(3-methoxyazetidin-1-yl)-1H-pyrrolo[2,3-b]pyridin-2-yl)-3-methylbenzofuran-6-yl)methanone] is 13-fold lower in IC50: 1210 nM for the first, 90 nM for the second. The second is the more potent here.

First: COc1cc(C(=O)N2C[C@H](N)C[C@@H](F)C2)cc2oc(-c3cc4ccccc4n3CC3CC3)c(C)c12 [Example 161, ((3R,5R)-3-Amino-5-fluoropiperidin-1-yl)(2-(1-(cyclopropylmethyl)-1H-indol-2-yl)-4-methoxy-3-methylbenzofuran-6-yl)methanone]
Second: COc1cc(C(=O)N2C[C@H](N)C[C@@H](F)C2)cc2oc(-c3cc4ccc(-c5cccc(O)c5F)cc4n3CC3CC3)c(C)c12 [Example 163, ((3R,5R)-3-Amino-5-fluoropiperidin-1-yl)(2-(1-(cyclopropylmethyl)-6-(2-fluoro-3-hydroxyphenyl)-1H-indol-2-yl)-4-methoxy-3-methylbenzofuran-6-yl)methanone]
The IC50 of the first is 11-fold lower: 487 nM for the first, 5590 nM for the second. The first is the more potent here.

Going from `COc1cc(C(=O)N2C[C@H](N)C[C@@H](F)C2)cc2oc(-c3cc4ccc(-c5ccc(C(N)=O)c(Cl)c5)cc4n3CC3CC3)c(C)c12` [Example 162, 4-(2-(6-((3R,5R)-3-Amino-5-fluoropiperidine-1-carbonyl)-4-methoxy-3-methylbenzofuran-2-yl)-1-(cyclopropylmethyl)-1H-indol-6-yl)-2-chlorobenzamide] to `Cc1c(-c2cc3ccc(-c4ccc5c(c4)C(=O)NC5)nc3n2CC2CC2)oc2cc(C(=O)N3C[C@H](N)C[C@@H](F)C3)ccc12` [Example 175, 6-(2-(6-((3R,5R)-3-Amino-5-fluoropiperidine-1-carbonyl)-3-methylbenzofuran-2-yl)-1-(cyclopropylmethyl)-1H-pyrrolo[2,3-b]pyridin-6-yl)isoindolin-1-one], the IC50 falls from 2290 nM to 830 nM (2.8-fold). The second is the more potent here.

First: Cc1c(-c2cc3cccnc3n2CC2CC2)oc2cc(C(=O)N3CC4CCC3[C@@H]4N)ccc12 (stereo partly drawn) [Example 164, ((7R)-7-Amino-2-azabicyclo[2.2.1]heptan-2-yl)(2-(1-(cyclopropylmethyl)-1H-pyrrolo[2,3-b]pyridin-2-yl)-3-methylbenzofuran-6-yl)methanone]
Second: Cc1c(-c2cc3ccc(Cl)nc3n2CC2CC2)oc2cc(C(=O)N3CC4CCC3[C@@H]4N)ccc12 (stereo partly drawn) [Example 165, ((7R)-7-Amino-2-azabicyclo[2.2.1]heptan-2-yl)(2-(6-chloro-1-(cyclopropylmethyl)-1H-pyrrolo[2,3-b]pyridin-2-yl)-3-methylbenzofuran-6-yl)methanone]
The IC50 of the first is 3.2-fold higher: 625 nM for the first, 198 nM for the second.

`Cc1c(-c2cc3ccc(-c4ccc5c(c4)C(=O)NC5)nc3n2CC2CC2)oc2cc(C(=O)N3CC4CCC3[C@@H]4N)ccc12` (stereo partly drawn) [Example 166, 6-(2-(6-((7R)-7-Amino-2-azabicyclo[2.2.1]heptane-2-carbonyl)-3-methylbenzofuran-2-yl)-1-(cyclopropylmethyl)-1H-pyrrolo[2,3-b]pyridin-6-yl)isoindolin-1-one] and `Cc1c(-c2cc3ccc(-c4ccc5c(c4)CNC5=O)nc3n2CC2CC2)oc2cc(C(=O)N3CC4CCC3[C@@H]4N)ccc12` (stereo partly drawn) [Example 168, 5-(2-(6-((7R)-7-Amino-2-azabicyclo[2.2.1]heptane-2-carbonyl)-3-methylbenzofuran-2-yl)-1-(cyclopropylmethyl)-1H-pyrrolo[2,3-b]pyridin-6-yl)isoindolin-1-one] are within 1.5-fold of each other in IC50: 56 nM for the first, 47 nM for the second.

Compared with `Cc1c(-c2cc3ccc(-c4ccn5c(C)nnc5c4)nc3n2CC2CC2)oc2cc(C(=O)N3CC4CCC3[C@@H]4N)ccc12` (some centres unmarked) [Example 167], `COc1cc(-c2ccc3cc(-c4oc5cc(C(=O)N6CC7CCC6[C@@H]7N)ccc5c4C)n(CC4CC4)c3n2)ccn1` (stereo partly drawn) [Example 172, ((7R)-7-Amino-2-azabicyclo[2.2.1]heptan-2-yl)(2-(1-(cyclopropylmethyl)-6-(2-methoxypyridin-4-yl)-1H-pyrrolo[2,3-b]pyridin-2-yl)-3-methylbenzofuran-6-yl)methanone] is 190-fold higher in IC50: 45 nM for the first, 8770 nM for the second.

`Cc1c(-c2cc3ccc(-c4cccc(O)c4F)nc3n2CC2CC2)oc2cc(C(=O)N3CC4CCC3[C@@H]4N)ccc12` (stereo partly drawn) [Example 169, ((7R)-7-Amino-2-azabicyclo[2.2.1]heptan-2-yl)(2-(1-(cyclopropylmethyl)-6-(2-fluoro-3-hydroxyphenyl)-1H-pyrrolo[2,3-b]pyridin-2-yl)-3-methylbenzofuran-6-yl)methanone] and `Cc1c(-c2cc3ccc(-c4cccc(O)c4F)cc3n2CC2CC2)oc2cc(C(=O)N3CC4CCC3[C@@H]4N)ccc12` (stereo partly drawn) [Example 181, ((7R)-7-Amino-2-azabicyclo[2.2.1]heptan-2-yl)(2-(1-(cyclopropylmethyl)-6-(2-fluoro-3-hydroxyphenyl)-1H-indol-2-yl)-3-methylbenzofuran-6-yl)methanone] are within 1.5-fold of each other in IC50: 181 nM for the first, 269 nM for the second.

Compared with `Cc1c(-c2cc3ccc(-c4ccc(C(N)=O)c(F)c4)nc3n2CC2CC2)oc2cc(C(=O)N3CC4CCC3[C@@H]4N)ccc12` (stereo partly drawn) [Example 170, 4-(2-(6-((7R)-7-amino-2-azabicyclo[2.2.1]heptane-2-carbonyl)-3-methylbenzofuran-2-yl)-1-(cyclopropylmethyl)-1H-pyrrolo[2,3-b]pyridin-6-yl)-2-fluorobenzamide], `Cc1c(-c2cc3ccc(-c4ccc(O)c(F)c4)cc3n2CC2CC2)oc2cc(C(=O)N3CC4CCC3[C@@H]4N)ccc12` (stereo partly drawn) [Example 182, ((7R)-7-Amino-2-azabicyclo[2.2.1]heptan-2-yl)(2-(1-(cyclopropylmethyl)-6-(3-fluoro-4-hydroxyphenyl)-1H-indol-2-yl)-3-methylbenzofuran-6-yl)methanone] is 6.8-fold higher in IC50: 135 nM for the first, 923 nM for the second.

First: Cc1ccc2cc(-c3oc4cc(C(=O)N5CC6CCC5[C@@H]6N)ccc4c3C)n(CC3CC3)c2n1 (stereo partly drawn) [Example 171, ((7R)-7-Amino-2-azabicyclo[2.2.1]heptan-2-yl)(2-(1-(cyclopropylmethyl)-6-methyl-1H-pyrrolo[2,3-b]pyridin-2-yl)-3-methylbenzofuran-6-yl)methanone]
Second: Cc1c(-c2cc3ccccc3n2CC2CC2)oc2cc(C(=O)N3CC4CCC3[C@@H]4N)ccc12 (stereo partly drawn) [Example 176, ((7R)-7-Amino-2-azabicyclo[2.2.1]heptan-2-yl)(2-(1-(cyclopropylmethyl)-1H-indol-2-yl)-3-methylbenzofuran-6-yl)methanone]
The IC50 of the first is 3-fold lower: 76 nM for the first, 229 nM for the second. The first is the more potent here.

`Cc1c(-c2cc3cccnc3n2CC2CC2)oc2cc(C(=O)N3C[C@H](N)C[C@@H](F)C3)ccc12` [Example 174, ((3R,5R)-3-Amino-5-fluoropiperidin-1-yl)(2-(1-(cyclopropylmethyl)-1H-pyrrolo[2,3-b]pyridin-2-yl)-3-methylbenzofuran-6-yl)methanone] and `Cc1c(-c2cc3ccc(-c4cnn(C(C)C)c4)cc3n2CC2CC2)oc2cc(C(=O)N3CC4CCC3[C@@H]4N)ccc12` (stereo partly drawn) [Example 180, ((7R)-7-Amino-2-azabicyclo[2.2.1]heptan-2-yl)(2-(1-(cyclopropylmethyl)-6-(1-isopropyl-1H-pyrazol-4-yl)-1H-indol-2-yl)-3-methylbenzofuran-6-yl)methanone] are within 1.5-fold of each other in IC50: 204 nM for the first, 220 nM for the second.

Going from `Cc1c(-c2cc3ccc(-c4ccc5c(c4)C(=O)NC5)cc3n2CC2CC2)oc2cc(C(=O)N3CC4CCC3[C@@H]4N)ccc12` (stereo partly drawn) [Example 177, 6-(2-(6-((7R)-7-Amino-2-azabicyclo[2.2.1]heptane-2-carbonyl)-3-methylbenzofuran-2-yl)-1-(cyclopropylmethyl)-1H-indol-6-yl)isoindolin-1-one] to `Cc1c(-c2cc3ccc(-c4ccc5c(c4)CNC5=O)cc3n2CC2CC2)oc2cc(C(=O)N3CC4CCC3[C@@H]4N)ccc12` (stereo partly drawn) [Example 178, 5-(2-(6-((7R)-7-Amino-2-azabicyclo[2.2.1]heptane-2-carbonyl)-3-methylbenzofuran-2-yl)-1-(cyclopropylmethyl)-1H-indol-6-yl)isoindolin-1-one], the IC50 rises from 69 nM to 153 nM (2.2-fold).
